The values below come from US20150258194A1, “MODULATING TRANSENDOTHELIAL MIGRATION AND RECRUITMENT OF GRANULOCYTES BY MODULATING C-MET PATHWAY” (VIB VZW, priority 2012, published 2015).

The target of assay [1] is MET (c-Met, HGF receptor) on mouse neutrophils (mouse) (UniProt P16056). The assay is described as follows: cell-based or functional assay.
The test system of assay [2] is Met expression in neutrophils. As to the kind of experiment: Q-PCR / Western blot of Met expression in mouse neutrophils. Format: cell-based. How it is done:
Western blot: 2×10^6 bone marrow neutrophils from WT mice were stimulated with TCM, CCM, 100 ng/ml of murine TNF-α (or mock medium 0% FBS or 10% FBS as control) for 20 hours at 37° C. For the co-culture with HUVEC, a monolayer of HUVEC was stimulated for 4 hours with 5 ng/ml IL-1 at 37° C., and washed before neutrophil seeding. After 20 hours of stimulation, neutrophils were collected using Cell Dissociation Buffer, Enzyme Free, PBS-Based (Gibco). Cells were washed in PBS, lysed in 15 μl of a protease inhibitor mixture and incubated for 15 minutes on ice. The stock solution was obtained by dissolving one tablet of Complete Mini protease inhibitor mixture (CI, Roche) in 5 ml of PBS with 2 mM diisopropyl fluorophosphate (DFP; Acros Organics, Morris Plains, N.J.). After addition of an equal amount of 2×SDS sample buffer supplemented with 4% 2-mercaptoethanol, the lysates were boiled for 15 minutes and kept at -80° C. until use. 30×10^6 neutrophils purified from healthy volunteer blood and stimulated with A549-CM, 100 ng/ml of human TNF-α, 50 ng/ml LPS (or mock medium 10% FBS as control) for 20 hours. Cells were incubated with DFP 2.7 mM for 15' at 4° C., collected and washed in PBS, DFP 2.7 mM, CI 1X, and lysed in hot […] buffer (25% SDS 10%, 25% Tris-HCl pH 6.8) at 96° C. for 10'. Cell lysates were sonicated, cleared and quantified. 6× loading buffer was added before loading on the gel. The following antibodies were used: mouse anti-mouse Met (clone 3D4; Invitrogen), mouse anti-mouse β-actin (Santa Cruz), rabbit anti-human Met (clone D1C2-XP; Cell Signaling), HRP-conjugated anti-beta-tubulin (Abcam). Signal was visualized by Enhanced Chemiluminescent Reagents (ECL, Invitrogen) or West Femto by Thermo Scientific according to the manufacturer's instructions. Quantitative RT-PCR: for mRNA analysis, 1×10^5 or 3×10^5 mouse or human neutrophils, respectively, were incubated in normoxic (21% oxygen) or hypoxic condition (1% oxygen) or stimulated with TCM (plus 50 μg/ml Enbrel or human IgG when indicated), CCM, A549-CM, 100 ng/ml of murine or human TNF-α, 50 ng/ml LPS, or mock medium in 96-multiwell for 4 hours at 37° C. 2×10^5 HUVEC were seeded in 24-multiwell coated with 0.1% gelatin and stimulated with 5 ng/ml IL-1 in DMEM 10% FBS for 4 hours at 37° C. Cells were washed in PBS, collected in RLT buffer (QIAGEN®) and kept at -80° C. RNA was extracted with an RNase Micro kit (QIAGEN®) according to manufacturer's instructions. Reverse transcription to cDNA was performed with the SuperScript III Reverse Transcriptase (Invitrogen) according to manufacturer's protocol. […]

In assay [3] the test system is MET expression in human neutrophils. The assay is described as follows: Q-PCR / Western blot of MET expression in human neutrophils. In kind it is cell-based. Conditions: Enbrel. How it is done:
Western blot: 2×10^6 bone marrow neutrophils from WT mice were stimulated with TCM, CCM, 100 ng/ml of murine TNF-α (or mock medium 0% FBS or 10% FBS as control) for 20 hours at 37° C. For the co-culture with HUVEC, a monolayer of HUVEC was stimulated for 4 hours with 5 ng/ml IL-1 at 37° C., and washed before neutrophil seeding. After 20 hours of stimulation, neutrophils were collected using Cell Dissociation Buffer, Enzyme Free, PBS-Based (Gibco). Cells were washed in PBS, lysed in 15 μl of a protease inhibitor mixture and incubated for 15 minutes on ice. The stock solution was obtained by dissolving one tablet of Complete Mini protease inhibitor mixture (CI, Roche) in 5 ml of PBS with 2 mM diisopropyl fluorophosphate (DFP; Acros Organics, Morris Plains, N.J.). After addition of an equal amount of 2×SDS sample buffer supplemented with 4% 2-mercaptoethanol, the lysates were boiled for 15 minutes and kept at -80° C. until use. […] Cell lysates were sonicated, cleared and quantified. […] Quantitative RT-PCR: for mRNA analysis, 1×10^5 or 3×10^5 mouse or human neutrophils, respectively, were incubated in normoxic (21% oxygen) or hypoxic condition (1% oxygen) or stimulated with TCM (plus 50 μg/ml Enbrel or human IgG when indicated), CCM, A549-CM, 100 ng/ml of murine or human TNF-α, 50 ng/ml LPS, or mock medium in 96-multiwell for 4 hours at 37° C. […]

In assay [1], “Hepatocyte Growth Factor (HGF), murine (from UniProt Q08048 33-728) (ligand)” gave an adhesion of neutrophils to an activated endothelium (HUVEC pre-stimulated with IL-1), FACS count of 48%.

Consider Enbrel [reference compound], for which the “Met induction in mouse neutrophils stimulated with TCM” value in assay [2] (TCM, 50 μg/ml Enbrel) is given as “abolishment of Met induction”. The “Met induction in neutrophils upon co-culture with activated ECs” value in assay [2] (mouse neutrophils, HUVEC (IL-1), TNF-a blockade) is listed as “prevented Met induction”. Besides, the “Met induction in human neutrophils stimulated with A549-CM” value in assay [3] was “abolishment of Met induction”.
